≈ marks a conversion by molar mass, not a printed value.

One experiment concerns Candida albicans GC 3066. The experiment can be described thus: MIC by broth dilution. In kind it is cell-based. The following applies: GC3066, 18 h, Table 1, 18 hours at 35° C. The method, then:
(§1) The minimum inhibitory concentration (MIC), the lowest concentration of the antibiotic which inhibits growth of the test organism, is determined by the broth dilution method using Muller-Hinton II […] (Baltimore Biological Laboratories) following the recommendations of the National Committee for Clinical Laboratory Standards [Methods for dilution antimicrobial susceptibility tests for bacteria that grow aerobically. Approved standard M7-A2. National Committee for Clinical Laboratory Standards, Villanova, Pa].
(§2) An inoculum level of 5×10^5 CFU/ml, and a range of antibiotic concentrations (64–0.06 μg/ml) is used. The MIC is determined after the microtiter plates are incubated for 18 hours at 35° C. in an ambient air incubator. The test organisms comprise a spectrum of the Gram-positive bacteria Staphylococcus aureus, Streptococcus pneumoniae, and Enterococcus sp., the Gram-negative bacteria Escherichia coli, and the yeast Candida albicans. These organisms include recent clinical isolates that are resistant to methicillin and vancomycin. MIC data of Cyan-416 A–E are listed in Table 1 and MIC data of ester derivatives of Cyan-416 B (Formula I) are listed in Table 2.
A general note: Broth dilution looks for growth in wells or tubes with falling amounts of substance.
The term MIC denotes the lowest concentration that inhibits growth of the organism. For the compound `COC(=O)c1c(O)ccc(O)c1C(=O)c1c(O)cc2c(c1O)[C@@H]1C=C[C@@]3(C2)[C@@H](OC(C)=O)c2cc(C)cc(O)c2C(=O)C3(O)C1=O` (some centres unmarked) [Example 3c, Cyan-416 C], the MIC is above 64 µg/mL.

The compound `COC(=O)c1c(O)ccc(O)c1C(=O)c1c(O)cc(C)c(Cc2c(C)cc(O)c(C(=O)c3c(O)ccc(O)c3C(=O)OC)c2O)c1O` [Example 4b, Cyan-416 E] showed an MIC of 64 µg/mL (≈ 98.7 µM).

For the next experiment, the system named is Enterococcus faecalis GC 2242. The experiment can be described thus: MIC by broth dilution. The following applies: GC2242, Table 1, 18 hours at 35° C., read-out: MIC. In kind it is cell-based. As for the experimental part: as §1, §2
Consider `COC(=O)c1c(O)ccc(O)c1C(=O)c1c(O)cc2c(c1O)[C@@H]1C=C[C@@]3(C2)[C@@H](OC(C)=O)c2cc(C)cc(O)c2C(=O)C3(O)C1=O` (some centres unmarked) [Example 3c, Cyan-416 C], for which the minimal inhibitory concentration (MIC) turned out to be 32 µg/mL (≈ 50.7 µM).

With `COC(=O)c1c(O)ccc(O)c1C(=O)c1c(O)cc(C)c(Cc2c(C)cc(O)c(C(=O)c3c(O)ccc(O)c3C(=O)OC)c2O)c1O` [Example 4b, Cyan-416 E], the minimal inhibitory concentration (MIC) was found to be 64 µg/mL (≈ 98.7 µM).

Another experiment concerns Enterococcus faecalis GC 4555. Kind of experiment: MIC by broth dilution. In kind it is cell-based. The following applies: GC4555, Table 1, 18 hours at 35° C., read-out: MIC. The method, then: as §1, §2
`COC(=O)c1c(O)ccc(O)c1C(=O)c1c(O)cc2c(c1O)[C@@H]1C=C[C@@]3(C2)[C@@H](OC(C)=O)c2cc(C)cc(O)c2C(=O)C3(O)C1=O` (some centres unmarked) [Example 3c, Cyan-416 C]: the minimal inhibitory concentration (MIC) is 64 µg/mL (≈ 101 µM).

Regarding `COC(=O)c1c(O)ccc(O)c1C(=O)c1c(O)cc(C)c(Cc2c(C)cc(O)c(C(=O)c3c(O)ccc(O)c3C(=O)OC)c2O)c1O` [Example 4b, Cyan-416 E], the minimum inhibitory concentration (MIC) was found to be 64 µg/mL (≈ 98.7 µM).

The subject of another experiment is Enterococcus faecalis GC 842. Kind of experiment: MIC by broth dilution. The settings on record: GC842, Table 1, 18 hours at 35° C. In kind it is cell-based. The method, then:
as §1, §2
Turning to `COC(=O)c1c(O)ccc(O)c1C(=O)c1c(O)cc2c(c1O)[C@@H]1C=C[C@@]3(C2)[C@@H](OC(C)=O)c2cc(C)cc(O)c2C(=O)C3(O)C1=O` (some centres unmarked) [Example 3c, Cyan-416 C], inhibition of growth (MIC) required 32 µg/mL (≈ 50.7 µM).

Regarding `COC(=O)c1c(O)ccc(O)c1C(=O)c1c(O)cc(C)c(Cc2c(C)cc(O)c(C(=O)c3c(O)ccc(O)c3C(=O)OC)c2O)c1O` [Example 4b, Cyan-416 E], the minimum inhibitory concentration (MIC) came out at 64 µg/mL (≈ 98.7 µM).

For another experiment, the system named is Escherichia coli GC 2203. The experiment can be described thus: MIC by broth dilution. In kind it is cell-based. The following applies: GC2203, 18 h, Table 1, Escherichia coli GC 2203, 18 hours at 35° C. The method, then:
as §1, §2
The compound `COC(=O)c1c(O)ccc(O)c1C(=O)c1c(O)cc2c(c1O)[C@@H]1C=C[C@@]3(C2)[C@@H](OC(C)=O)c2cc(C)cc(O)c2C(=O)C3(O)C1=O` (some centres unmarked) [Example 3c, Cyan-416 C] came in with an MIC above 64 µg/mL.

As to `COC(=O)c1c(O)ccc(O)c1C(=O)c1c(O)cc(C)c(Cc2c(C)cc(O)c(C(=O)c3c(O)ccc(O)c3C(=O)OC)c2O)c1O` [Example 4b, Cyan-416 E], the MIC is above 64 µg/mL.

The test system of another experiment is Escherichia coli GC 4560 (imp). Kind of experiment: MIC by broth dilution. In kind it is cell-based. The settings on record: Escherichia coli, 18 h. The method, then: as §1, §2
`COC(=O)c1c(O)ccc(O)c1C(=O)c1c(O)cc2c(c1O)[C@@H]1C=C[C@@]3(C2)[C@@H](OC(C)=O)c2cc(C)cc(O)c2C(=O)C3(O)C1=O` (some centres unmarked) [Example 3c, Cyan-416 C] yielded an MIC above 64 µg/mL.

For the compound `COC(=O)c1c(O)ccc(O)c1C(=O)c1c(O)cc(C)c(Cc2c(C)cc(O)c(C(=O)c3c(O)ccc(O)c3C(=O)OC)c2O)c1O` [Example 4b, Cyan-416 E], it took 64 µg/mL (≈ 98.7 µM) to inhibit growth (MIC).

In a further experiment the test system is Staphylococcus aureus GC 1131. Kind of experiment: MIC by broth dilution. The settings on record: GC1131, Table 1, 18 hours at 35° C., read-out: MIC. In kind it is cell-based. The method, then: as §1, §2
On to `COC(=O)c1c(O)ccc(O)c1C(=O)c1c(O)cc2c(c1O)[C@@H]1C=C[C@@]3(C2)[C@@H](OC(C)=O)c2cc(C)cc(O)c2C(=O)C3(O)C1=O` (some centres unmarked) [Example 3c, Cyan-416 C], for which the MIC amounted to 32 µg/mL (≈ 50.7 µM).

Regarding `COC(=O)c1c(O)ccc(O)c1C(=O)c1c(O)cc(C)c(Cc2c(C)cc(O)c(C(=O)c3c(O)ccc(O)c3C(=O)OC)c2O)c1O` [Example 4b, Cyan-416 E], the MIC came out at 64 µg/mL (≈ 98.7 µM).

In another experiment the test system is Staphylococcus aureus GC 2216. The experiment can be described thus: MIC by broth dilution. In kind it is cell-based. The settings on record: GC2216, Table 1, 18 hours at 35° C., read-out: MIC. The method, then:
as §1, §2
Consider `COC(=O)c1c(O)ccc(O)c1C(=O)c1c(O)cc2c(c1O)[C@@H]1C=C[C@@]3(C2)[C@@H](OC(C)=O)c2cc(C)cc(O)c2C(=O)C3(O)C1=O` (some centres unmarked) [Example 3c, Cyan-416 C], for which the minimum inhibitory concentration (MIC) came to 32 µg/mL (≈ 50.7 µM).

Turning to `COC(=O)c1c(O)ccc(O)c1C(=O)c1c(O)cc(C)c(Cc2c(C)cc(O)c(C(=O)c3c(O)ccc(O)c3C(=O)OC)c2O)c1O` [Example 4b, Cyan-416 E], the MIC amounted to 64 µg/mL (≈ 98.7 µM).

In the next experiment the test system is Staphylococcus aureus GC 4536. Kind of experiment: MIC by broth dilution. In kind it is cell-based. The settings on record: GC4536, Table 1, 18 hours at 35° C. The method, then:
as §1, §2
Consider `COC(=O)c1c(O)ccc(O)c1C(=O)c1c(O)cc2c(c1O)[C@@H]1C=C[C@@]3(C2)[C@@H](OC(C)=O)c2cc(C)cc(O)c2C(=O)C3(O)C1=O` (some centres unmarked) [Example 3c, Cyan-416 C], for which the lowest concentration to inhibit growth (MIC) was 32 µg/mL (≈ 50.7 µM).

`COC(=O)c1c(O)ccc(O)c1C(=O)c1c(O)cc(C)c(Cc2c(C)cc(O)c(C(=O)c3c(O)ccc(O)c3C(=O)OC)c2O)c1O` [Example 4b, Cyan-416 E] displayed an MIC of 64 µg/mL (≈ 98.7 µM).

Another experiment has as its system Pseudomonas aeruginosa GC 2214. Kind of experiment: MIC by broth dilution. In kind it is cell-based. The following applies: GC2214, Table 1, 18 hours at 35° C.
As to `COC(=O)c1c(O)ccc(O)c1C(=O)c1c(O)cc2c(c1O)[C@@H]1C=C[C@@]3(C2)[C@@H](OC(C)=O)c2cc(C)cc(O)c2C(=O)C3(O)C1=O` (some centres unmarked) [Example 3c, Cyan-416 C], the MIC is above 64 µg/mL.

Regarding `COC(=O)c1c(O)ccc(O)c1C(=O)c1c(O)cc(C)c(Cc2c(C)cc(O)c(C(=O)c3c(O)ccc(O)c3C(=O)OC)c2O)c1O` [Example 4b, Cyan-416 E], the minimal inhibitory concentration (MIC) came to 64 µg/mL (≈ 98.7 µM).
